Measured values: US20220243210A1, “ANGIOTENSIN II TYPE 1 RECEPTOR TARGETED OLIGONUCLEOTIDES AND USES THEREOF” (Ionis Pharmaceuticals, Inc., priority 2019, published 2022)
Oligonucleotides are written 5' to 3', each unit as a sugar letter and its base; * is a phosphorothioate linkage, no mark a phosphodiester; rarer units and linkages stand in square brackets, end groups in braces. Plain capitals give the bases only. {Cy3} = Cy3 fluorescent dye label; k = constrained ethyl (cEt); [5mC] = 5-methylcytosine; d = 2'-deoxy (DNA)

Test system: mouse MALAT RNA
Assay: MALAT RNA reduction in vivo, C57BL6/J mice, with or without Losartan pretreatment
Settings: no Losartan, sacrifice 4 days after dose
Experimental: Compound Nos. 1213287 and 1295887 are described in Table 1 above. Compound Nos. 1213287 and 1295887 were tested in C57BL6/J mice with or without pretreatment with the AGTR1 antagonist, Losartan. The mice were divided into groups of 3 mice each. Mice receiving Losartan were treated with 150 mg/L in the drinking water for 10 days. Each mouse received a single IV dose on day 10 of either Compound No. 1213287 or 1295887 of either 1.2 or 3.6 μmol/kg. The mice were then sacrificed on day 14. Heart, adipose, adrenal, kidney, and liver tissue was then collected and homogenized and RNA analysis was performed. A group of 4 mice received PBS as a negative control.
RNA was extracted from heart, adipose, adrenal, kidney, and liver tissue for real-time PCR analysis of measurement of RNA expression of MALAT using primer probe set mMALAT1 #2 (forward sequence […] (SEQ ID NO: 5); reverse sequence […] (SEQ ID NO: 6); probe sequence […] (SEQ ID NO: 7)). Results are presented as percent change of RNA, relative to PBS control, normalized to mouse GAPDH.

## Compound No. 1213287: Control unconjugated 19-nucleotide modified oligonucleotide TCAGCATTCTAATAGCAGC with a 3′ Cy3 label (antisense dTd[5mC]dAkG*k[5mC]*kA*dT*dT*d[5mC]*dT*dA*dA*dT*dA*dG*d[5mC]*kA*kG*k[5mC]-{Cy3}) [reference compound]
Adipose, single IV 1.2 μmol/kg
  MALAT RNA (% control): 78.0 % control
Adipose, single IV 3.6 μmol/kg
  MALAT RNA (% control): 53.0 % control
Adrenal, single IV 1.2 μmol/kg
  MALAT RNA (% control): 78.7 % control
Adrenal, single IV 3.6 μmol/kg
  MALAT RNA (% control): 50.0 % control
Heart, single IV 1.2 μmol/kg
  MALAT RNA (% control): 77.0 % control
Heart, single IV 3.6 μmol/kg
  MALAT RNA (% control): 57.3 % control
Kidney, single IV 1.2 μmol/kg
  MALAT RNA (% control): 58.3 % control
Kidney, single IV 3.6 μmol/kg
  MALAT RNA (% control): 42.3 % control
Liver, single IV 1.2 μmol/kg
  MALAT RNA (% control): 53.7 % control
Liver, single IV 3.6 μmol/kg
  MALAT RNA (% control): 35.0 % control
